Data published in publication PMC11003488 (Journal of Enzyme Inhibition and Medicinal Chemistry, 2023).
Read-outs that look alike come from different tables or passages of the source.

Key:
A549/ATCC = assay: NCI-60 SRB growth inhibition, one-dose and five-dose; format: cell-based; conditions: Homo sapiens; for GI50: A549; for inhibition at 10 µM: A549, read-out: percent growth inhibition
HOP-62 = assay: as above; format: cell-based; conditions: Homo sapiens; for GI50: HOP-62; for inhibition at 10 µM: HOP-62, read-out: percent growth inhibition
HOP-92 = assay: as above; format: cell-based; conditions: Homo sapiens; for GI50: HOP-92; for inhibition at 10 µM: HOP-92, read-out: percent growth inhibition
NCI-H460 = assay: as above; format: cell-based; conditions: Homo sapiens; for GI50: NCI-H460; for inhibition at 10 µM: NCI-H460, read-out: percent growth inhibition
HCT-116 = assay: as above; format: cell-based; conditions: Homo sapiens; for GI50: HCT-116, HCT-116, five-dose screening; for inhibition at 10 µM: HCT-116, read-out: percent growth inhibition
SW-620 = assay: as above; format: cell-based; conditions: Homo sapiens; for GI50: SW-620; for inhibition at 10 µM: SW-620, read-out: percent growth inhibition
SF-295 = assay: as above; format: cell-based; conditions: Homo sapiens; for GI50: SF-295; for inhibition at 10 µM: SF-295, read-out: percent growth inhibition
SF-539 = assay: as above; format: cell-based; conditions: Homo sapiens; for GI50: SF-539; for inhibition at 10 µM: SF-539, read-out: percent growth inhibition
SK-MEL-5 = assay: as above; format: cell-based; conditions: Homo sapiens; for GI50: SK-MEL-5; for inhibition at 10 µM: SK-MEL-5, read-out: percent growth inhibition
UACC-62 = assay: as above; format: cell-based; conditions: Homo sapiens; for GI50: UACC-62; for inhibition at 10 µM: UACC-62, read-out: percent growth inhibition
OVCAR-5 = assay: as above; format: cell-based; conditions: Homo sapiens; for GI50: OVCAR-5; for inhibition at 10 µM: OVCAR-5, read-out: percent growth inhibition
SK-OV-3 = assay: as above; format: cell-based; conditions: Homo sapiens; for GI50: SK-OV-3; for inhibition at 10 µM: SK-OV-3, read-out: percent growth inhibition
TK-10 = assay: as above; format: cell-based; conditions: Homo sapiens; for GI50: TK-10; for inhibition at 10 µM: TK-10, read-out: percent growth inhibition
UO-31 = assay: as above; format: cell-based; conditions: Homo sapiens; for GI50: UO-31
DU-145 = assay: as above; format: cell-based; conditions: Homo sapiens; for GI50: DU-145; for inhibition at 10 µM: DU-145, read-out: percent growth inhibition
MDA-MB-231/ATCC = assay: as above; format: cell-based; conditions: Homo sapiens; for GI50: MDA-MB-231
BT-549 = assay: as above; format: cell-based; conditions: Homo sapiens; for GI50: BT-549; for inhibition at 10 µM: BT-549, read-out: percent growth inhibition
[1] = system: NCI 60-cell line panel (full panel); assay: NCI-60 SRB growth inhibition, full panel mean / MG-MID; format: cell-based, human; conditions: for GI50: Homo sapiens, 60 cell; for Full panel Mean GI %: mean over NCI-60 panel, single dose 10 µM
Leukaemia cell lines = assay: NCI-60 SRB growth inhibition, subpanel; format: cell-based, human; conditions: for GI50: Homo sapiens
NSCLC cell lines = assay: NCI-60 SRB growth inhibition, subpanel; format: cell-based, human; conditions: for GI50: Homo sapiens
Colon cancer cell lines = assay: NCI-60 SRB growth inhibition, subpanel; format: cell-based, human; conditions: for GI50: Homo sapiens
CNS cancer cell lines = assay: NCI-60 SRB growth inhibition, subpanel; format: cell-based, human; conditions: for GI50: Homo sapiens
Melanoma cell lines = assay: NCI-60 SRB growth inhibition, subpanel; format: cell-based, human; conditions: for GI50: Homo sapiens
[2] = system: Ovarian cancer cell lines; assay: NCI-60 SRB growth inhibition, subpanel; format: cell-based, human; conditions: for GI50: Homo sapiens
Renal cancer cell lines = assay: NCI-60 SRB growth inhibition, subpanel; format: cell-based, human; conditions: for GI50: Homo sapiens
[3] = system: Prostate cancer cell lines; assay: NCI-60 SRB growth inhibition, subpanel; format: cell-based, human; conditions: for GI50: Homo sapiens
Breast cancer cell lines = assay: NCI-60 SRB growth inhibition, subpanel; format: cell-based, human; conditions: for GI50: Homo sapiens
[4] = Cytotoxicity towards normal fibroblasts, safety index; format: cell-based, human; conditions: human, WI-38 normal fibroblast cells
[5] = system: WI-38 normal human fibroblast cells; assay: as above; format: cell-based; conditions: WI-38 versus cancer cell lines
Human VEGFR-2 = Human VEGFR-2 (Homo sapiens, UniProt P35968); assay: VEGFR-2 inhibition assay; format: biochemical
Sequence of Human VEGFR-2 (P35968 20-1356): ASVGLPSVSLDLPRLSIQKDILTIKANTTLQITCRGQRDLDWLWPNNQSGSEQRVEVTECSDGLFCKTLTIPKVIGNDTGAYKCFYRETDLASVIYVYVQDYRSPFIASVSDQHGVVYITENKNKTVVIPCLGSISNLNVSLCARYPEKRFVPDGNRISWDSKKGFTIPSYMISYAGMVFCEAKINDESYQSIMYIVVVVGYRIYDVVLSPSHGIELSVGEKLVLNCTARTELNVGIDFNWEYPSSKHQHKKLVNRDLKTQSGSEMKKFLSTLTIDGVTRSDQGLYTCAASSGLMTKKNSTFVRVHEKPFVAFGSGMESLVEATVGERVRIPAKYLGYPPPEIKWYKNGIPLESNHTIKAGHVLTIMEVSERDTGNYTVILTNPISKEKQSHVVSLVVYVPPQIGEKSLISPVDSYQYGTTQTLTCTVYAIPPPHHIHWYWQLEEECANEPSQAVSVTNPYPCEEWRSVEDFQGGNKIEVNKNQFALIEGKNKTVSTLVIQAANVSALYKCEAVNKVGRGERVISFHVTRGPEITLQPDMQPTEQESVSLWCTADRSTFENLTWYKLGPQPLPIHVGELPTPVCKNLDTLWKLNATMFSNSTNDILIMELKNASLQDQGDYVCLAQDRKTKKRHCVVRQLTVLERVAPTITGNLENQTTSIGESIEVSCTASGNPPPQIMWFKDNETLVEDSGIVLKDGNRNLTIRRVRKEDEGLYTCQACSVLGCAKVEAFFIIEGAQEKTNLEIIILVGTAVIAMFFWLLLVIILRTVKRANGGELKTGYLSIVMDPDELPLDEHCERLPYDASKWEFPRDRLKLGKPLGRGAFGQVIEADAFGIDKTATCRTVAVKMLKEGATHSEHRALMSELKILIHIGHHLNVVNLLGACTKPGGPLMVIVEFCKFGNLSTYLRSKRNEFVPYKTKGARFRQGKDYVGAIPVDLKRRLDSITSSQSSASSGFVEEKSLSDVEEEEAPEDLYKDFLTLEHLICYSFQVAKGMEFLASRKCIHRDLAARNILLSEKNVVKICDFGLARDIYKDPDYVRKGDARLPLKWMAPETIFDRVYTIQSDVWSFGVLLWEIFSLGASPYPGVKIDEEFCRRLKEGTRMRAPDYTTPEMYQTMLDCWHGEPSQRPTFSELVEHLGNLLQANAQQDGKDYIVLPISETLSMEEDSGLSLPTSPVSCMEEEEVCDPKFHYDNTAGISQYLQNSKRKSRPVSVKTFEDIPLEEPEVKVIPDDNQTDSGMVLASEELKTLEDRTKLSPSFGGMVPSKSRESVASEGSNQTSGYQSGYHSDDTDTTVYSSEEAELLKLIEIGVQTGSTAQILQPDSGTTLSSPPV

In the case of `COc1ccc(CNc2cccc(C(=O)/C=C/c3cccnc3)c2)cc1OC` [Compound 5c, (E)-1–(3-((3,4-dimethoxybenzyl)amino)phenyl)-3-(pyridin-3-yl)prop-2-en-1-one], the GI50 (A549/ATCC) is reported as 17.2 µM, the inhibition at 10 µM (A549/ATCC) is reported as 17.6% and the GI50 (HOP-62) is reported as 12.2 µM. The inhibition at 10 µM (HOP-62) was 30%, the GI50 (HOP-92) was 11 µM and the inhibition at 10 µM (HOP-92) was 36.8%. It also gave a GI50 (NCI-H460) of 5.22 µM, an inhibition at 10 µM (NCI-H460) of 69% and a GI50 (HCT-116) of 1.94 µM. The inhibition at 10 µM (HCT-116) was 183%, the GI50 (SW-620) was 2.31 µM and the inhibition at 10 µM (SW-620) was 177%. The GI50 (SF-295) was 10.4 µM, the inhibition at 10 µM (SF-295) was 53.7% and the GI50 (SF-539) was 12.4 µM. The inhibition at 10 µM (SF-539) was 162%, the GI50 (SK-MEL-5) was 5.86 µM and the inhibition at 10 µM (SK-MEL-5) was 103%. It also gave a GI50 (UACC-62) of 10.5 µM, an inhibition at 10 µM (UACC-62) of 61.1% and a GI50 (OVCAR-5) of 13.9 µM. The inhibition at 10 µM (OVCAR-5) was 68.4%, the GI50 (SK-OV-3) was 16.6 µM and the inhibition at 10 µM (SK-OV-3) was 41.8%. For the same compound, the GI50 (TK-10) was 8.14 µM, the inhibition at 10 µM (TK-10) was 23.9% and the GI50 (UO-31) was 10.5 µM. For the same compound, the inhibition at 10 µM (UO-31; UO-31, read-out: percent growth inhibition) was 65%, the GI50 (DU-145) was 12.4 µM and the inhibition at 10 µM (DU-145) was 60.5%. For the same compound, the GI50 (MDA-MB-231/ATCC) was 2.96 µM, the inhibition at 10 µM (MDA-MB-231/ATCC; MDA-MB-231, read-out: percent growth inhibition) was 94.5% and the GI50 (BT-549) was 2.57 µM. The inhibition at 10 µM (BT-549) was 135%, the GI50 ([1]; read-out: Full panel GI50 mean) was 7.67 µM and the “Full panel Mean GI %” value [1] was 87.75%. For the same compound, the GI50 (Leukaemia cell lines; read-out: GI50 MG-MID) was 2.6 µM, the GI50 (NSCLC cell lines; read-out: GI50 MG-MID) was 11.2 µM and the GI50 (Colon cancer cell lines; read-out: GI50 MG-MID) was 4.45 µM. The GI50 (CNS cancer cell lines; read-out: GI50 MG-MID) was 9.11 µM, the GI50 (Melanoma cell lines; read-out: GI50 MG-MID) was 7.75 µM and the GI50 ([2]; read-out: GI50 MG-MID) was 8.65 µM. It also gave a GI50 (Renal cancer cell lines; read-out: GI50 MG-MID) of 9.08 µM, a GI50 ([3]; read-out: GI50 MG-MID) of 10.2 µM and a GI50 (Breast cancer cell lines; read-out: GI50 MG-MID) of 5.96 µM. The GI50 at 48 h [4] was over 100 µM, the Safety index [5] was over 1 and the IC50 (Human VEGFR-2) was 0.96 ± 0.012 µM.
For `O=C(/C=C/c1cccnc1)c1cccc(NCc2csc3ccccc23)c1` [Compound 5d, (E)-1–(3-((benzo[b]thiophen-3-ylmethyl)amino)phenyl)-3-(pyridin-3-yl)prop-2-en-1-one], the GI50 (A549/ATCC) was 11.5 µM, the inhibition at 10 µM (A549/ATCC) was 53.1% and the GI50 (HOP-62) was 10.2 µM. It also gave an inhibition at 10 µM (HOP-62) of 65.2%, a GI50 (HOP-92) of 10.2 µM and an inhibition at 10 µM (HOP-92) of 39.4%. For the same compound, the GI50 (NCI-H460) was 4.98 µM, the inhibition at 10 µM (NCI-H460) was 91.3% and the GI50 (HCT-116) was 1.82 µM. It also gave an inhibition at 10 µM (HCT-116) of 195%, a GI50 (SW-620) of 1.84 µM and an inhibition at 10 µM (SW-620) of 166%. It also gave a GI50 (SF-295) of 5.12 µM, an inhibition at 10 µM (SF-295) of 92.9% and a GI50 (SF-539) of 6.15 µM. For the same compound, the inhibition at 10 µM (SF-539) was 171%, the GI50 (SK-MEL-5) was 2.89 µM and the inhibition at 10 µM (SK-MEL-5) was 163%. For the same compound, the GI50 (UACC-62) was 3.75 µM, the inhibition at 10 µM (UACC-62) was 151% and the GI50 (OVCAR-5) was 7.07 µM. It also gave an inhibition at 10 µM (OVCAR-5) of 91.5%, a GI50 (SK-OV-3) of 11.8 µM and an inhibition at 10 µM (SK-OV-3) of 35.8%. It also gave a GI50 (TK-10) of 6.18 µM, an inhibition at 10 µM (TK-10) of 60% and a GI50 (UO-31) of 4.94 µM. It also gave a GI50 (DU-145) of 7.35 µM, an inhibition at 10 µM (DU-145) of 71.9% and a GI50 (MDA-MB-231/ATCC) of 2.67 µM. It also gave a GI50 (BT-549) of 2.75 µM, an inhibition at 10 µM (BT-549) of 174% and a GI50 ([1]; read-out: Full panel GI50 mean) of 4.74 µM. For the same compound, the GI50 ([1]; read-out: Full panel MG-MID GI50) was 4.74 µM, the “Full panel Mean GI %” value [1] was 120.02% and the GI50 (Leukaemia cell lines; read-out: GI50 MG-MID) was 2.76 µM. For the same compound, the GI50 (Leukaemia cell lines; read-out: MG-MID GI50) was 2.76 µM, the “SI (Selectivity Index)” value (Leukaemia cell lines; full panel MG-MID / leukaemia subpanel MG-MID) was 1.72 and the GI50 (NSCLC cell lines; read-out: GI50 MG-MID) was 6.83 µM. For the same compound, the GI50 (NSCLC cell lines; read-out: MG-MID GI50) was 6.83 µM, the “SI (Selectivity Index)” value (NSCLC cell lines; full panel MG-MID / NSCLC subpanel MG-MID) was 0.69 and the GI50 (Colon cancer cell lines; read-out: GI50 MG-MID) was 3.93 µM. For the same compound, the GI50 (Colon cancer cell lines; read-out: MG-MID GI50) was 3.93 µM, the “SI (Selectivity Index)” value (Colon cancer cell lines; full panel MG-MID / Colon Cancer subpanel MG-MID) was 1.21 and the GI50 (CNS cancer cell lines; read-out: GI50 MG-MID) was 5.4 µM. For the same compound, the GI50 (CNS cancer cell lines; read-out: MG-MID GI50) was 5.4 µM, the “SI (Selectivity Index)” value (CNS cancer cell lines; full panel MG-MID / CNS Cancer subpanel MG-MID) was 0.88 and the GI50 (Melanoma cell lines; read-out: GI50 MG-MID) was 3.76 µM. The GI50 (Melanoma cell lines; read-out: MG-MID GI50) was 3.76 µM, the “SI (Selectivity Index)” value (Melanoma cell lines; full panel MG-MID / Melanoma subpanel MG-MID) was 1.26 and the GI50 ([2]; read-out: GI50 MG-MID) was 5.3 µM. For the same compound, the GI50 ([2]; read-out: MG-MID GI50) was 5.3 µM, the “SI (Selectivity Index)” value ([2]; full panel MG-MID / Ovarian Cancer subpanel MG-MID) was 0.89 and the GI50 (Renal cancer cell lines; read-out: GI50 MG-MID) was 6.46 µM. The GI50 (Renal cancer cell lines; read-out: MG-MID GI50) was 6.46 µM, the “SI (Selectivity Index)” value (Renal cancer cell lines; full panel MG-MID / Renal Cancer subpanel MG-MID) was 0.73 and the GI50 ([3]; read-out: GI50 MG-MID) was 5.56 µM. For the same compound, the GI50 ([3]; read-out: MG-MID GI50) was 5.56 µM, the “SI (Selectivity Index)” value ([3]; full panel MG-MID / Prostatic Cancer subpanel MG-MID) was 0.85 and the GI50 (Breast cancer cell lines; read-out: GI50 MG-MID) was 2.69 µM. For the same compound, the GI50 (Breast cancer cell lines; read-out: MG-MID GI50) was 2.69 µM, the “SI (Selectivity Index)” value (Breast cancer cell lines; full panel MG-MID / Breast Cancer subpanel MG-MID) was 1.76 and the GI50 at 48 h [4] was over 100 µM. For the same compound, the Safety index [5] was over 1 and the IC50 (Human VEGFR-2) was 1.46 ± 0.009 µM.
